From ChEMBL document CHEMBL2417426, “Synthesis of quaternary α-amino acid-based arginase inhibitors via the Ugi reaction” (Bioorg Med Chem Lett, 2013)
pIC50: −log10 of the molar value.

Assays:
[1] = Bioavailability in ip dosed rat; format: ADME, organism-based; details: in vivo
[2] = biological target: T1, Arginase-2, mitochondrial (Homo sapiens, UniProt P78540); assay: Inhibition of human arginase-2 assessed as L-arginine conversion to L-ornithine measured as urea level after 1 hr by colorimetric assay
T1 sequence (P78540 whole entry): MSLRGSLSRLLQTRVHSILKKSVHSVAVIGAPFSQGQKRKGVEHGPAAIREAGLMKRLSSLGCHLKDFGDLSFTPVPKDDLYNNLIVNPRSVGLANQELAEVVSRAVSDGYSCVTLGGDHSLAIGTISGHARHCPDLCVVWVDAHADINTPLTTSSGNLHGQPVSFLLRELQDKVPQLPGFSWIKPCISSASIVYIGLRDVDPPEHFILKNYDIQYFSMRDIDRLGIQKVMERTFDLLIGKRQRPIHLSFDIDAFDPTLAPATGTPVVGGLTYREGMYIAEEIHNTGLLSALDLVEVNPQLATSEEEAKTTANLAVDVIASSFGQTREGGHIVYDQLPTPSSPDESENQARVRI

[3] = biological target: T2, Arginase-1 (Homo sapiens, UniProt P05089); assay: Inhibition of human arginase-1 assessed as L-arginine conversion to L-ornithine measured as urea level after 1 hr by colorimetric assay
T2 sequence (P05089 whole entry): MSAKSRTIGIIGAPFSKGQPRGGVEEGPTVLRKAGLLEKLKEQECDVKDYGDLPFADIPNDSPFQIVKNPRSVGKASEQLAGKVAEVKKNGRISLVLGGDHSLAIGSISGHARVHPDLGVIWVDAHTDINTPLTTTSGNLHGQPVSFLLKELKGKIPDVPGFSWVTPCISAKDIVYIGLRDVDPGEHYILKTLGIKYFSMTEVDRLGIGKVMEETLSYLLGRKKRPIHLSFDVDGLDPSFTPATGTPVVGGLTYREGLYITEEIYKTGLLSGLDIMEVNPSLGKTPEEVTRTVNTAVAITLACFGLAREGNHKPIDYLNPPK

[4] = Octanol-phosphate buffer partition coefficient, log D of the compound by shake-flask method; format: physicochemical
[5] = Mean residence time in rat; format: ADME, organism-based; details: in vivo
[6] = Oral bioavailability in rat; format: ADME, organism-based; details: in vivo
[7] = Clearance in iv dosed rat; format: ADME, organism-based; details: in vivo
[8] = Volume of distribution at steady state in iv dosed rat; format: ADME, organism-based; details: in vivo, read-out: Vdss
[9] = tested on: Plasma; assay: Initial plasma concentration in rat; format: ADME
[10] = Half life in iv dosed rat; format: ADME, organism-based; details: in vivo
[11] = tested on: Rattus norvegicus; assay: AUC (0 to infinity) in iv dosed rat; format: ADME, organism-based, Plasma; parameters: route intravenous, time infinity; details: in vivo
[12] = tested on: Rattus norvegicus; assay: AUC (0 to t) in iv dosed rat; format: ADME, organism-based, Plasma; details: in vivo

SMILES | bioavailability [1] [%] | pIC50 [2] | pIC50 [3] | logD [4] | MRT [5] [h] | bioavailability [6] [%] | clearance [7] [mL/min/kg] | Vd [8] [L/kg] | C0 [9] [ng/mL] | half-life [10] [h] | AUC [11] [kg·h/L] | AUCt [12] [kg·h/L]
NC(CCCCB(O)O)(C(=O)O)C1CC2CCC(C1)N2 (racemic) | < 5 | 7.07 | 7.10 | – | – | – | – | – | – | – | – | –
NC(CCCCB(O)O)(C(=O)O)C1CCN(Cc2ccccc2)CC1 (racemic) | < 5 | 6.64 | 6.70 | -0.4 | – | – | – | – | – | – | – | –
N[C@@H](CCCCB(O)O)C(=O)O | – | 5.67 | 5.83 | – | – | – | – | – | – | – | – | –
NC(CCCCB(O)O)(C(=O)O)C1CC2CCC(C1)N2Cc1ccc(Cl)cc1 (racemic) | < 5 | 7.52 | 7.77 | – | – | – | – | – | – | – | – | –
NC(CCCCB(O)O)(C(=O)O)C1CCN(Cc2ccc(Cl)cc2)CC1 (racemic) | < 5 | 6.62 | 6.72 | 0.3 | – | – | – | – | – | – | – | –
NC(CCCCB(O)O)(C(=O)O)C1CCN(CCCc2ccc(Cl)cc2Cl)CC1 (racemic) | < 5 | 7.30 | 7.00 | 1.2 | – | – | – | – | – | – | – | –
CC(C)CCN1CCC(C(N)(CCCCB(O)O)C(=O)O)CC1 (racemic) | < 5 | 6.64 | 6.74 | -1.1 | – | – | – | – | – | – | – | –
NC(CCCCB(O)O)(C(=O)O)C1CCN(Cc2ccc(Cl)c(Cl)c2)CC1 (racemic) | > 50 | 6.54 | 6.70 | 1.5 | 2.14 | 4.8 | 7.87 | 1.51 | 4720 | 7.83 | 2.12 | 2.05
NC(CCCCB(O)O)(C(=O)O)C1CC2CCC(C1)N2Cc1ccc(F)c(F)c1 (racemic) | < 5 | 7.48 | 7.66 | – | – | – | – | – | – | – | – | –
NC(CCCCB(O)O)(C(=O)O)C1CCN(C(=S)NCc2ccc(Cl)cc2)CC1 (racemic) | < 5 | 5.95 | 6.48 | – | – | – | – | – | – | – | – | –
NC(CCCCB(O)O)(C(=O)O)C1CCNCC1 (racemic) | < 5 | 6.19 | 6.42 | -2.8 | – | – | – | – | – | – | – | –
NC(CCCCB(O)O)(C(=O)O)C1CCN(C(=O)Nc2ccc(Cl)cc2)CC1 (racemic) | < 5 | 5.96 | 6.14 | 0.5 | – | – | – | – | – | – | – | –
NC(CCCCB(O)O)(C(=O)O)C1CCN(CCCc2ccc(C(F)(F)F)cc2)CC1 (racemic) | < 5 | 7.15 | 6.92 | – | – | – | – | – | – | – | – | –
NC(CCCCB(O)O)(C(=O)O)C1CC2CCC(C1)N2Cc1ccccc1 (racemic) | < 5 | 7.33 | 7.62 | – | – | – | – | – | – | – | – | –
Cc1ccc(S(=O)(=O)N2CCC(C(N)(CCCCB(O)O)C(=O)O)CC2)cc1 (racemic) | < 5 | 5.33 | 5.18 | – | – | – | – | – | – | – | – | –
NC(CCCCB(O)O)(C(=O)O)C1CC2CCC(C1)N2Cc1ccc(Cl)c(Cl)c1 (racemic) | > 50 | 7.64 | 7.68 | 2.4 | 0.912 | 0.25 | 16.8 | 0.918 | 4770 | 3.12 | 0.994 | 0.951
NC(CCCCB(O)O)(C(=O)O)C1CCN(CCc2ccc(Cl)cc2Cl)CC1 (racemic) | < 5 | 6.48 | 6.68 | – | – | – | – | – | – | – | – | –
